Data on eight compounds can be found in publication PMC7187165, “Structure‐Based Design, Synthesis, and Biological Evaluation of Triazole‐Based smHDAC8 Inhibitors” (Chemmedchem, 2020).

The target of one series is T1, smHDAC8 (Schistosoma mansoni, UniProt A5H660).
T1 construct: made in house; host or cells: E. coli
T1 sequence (A5H660 1-440): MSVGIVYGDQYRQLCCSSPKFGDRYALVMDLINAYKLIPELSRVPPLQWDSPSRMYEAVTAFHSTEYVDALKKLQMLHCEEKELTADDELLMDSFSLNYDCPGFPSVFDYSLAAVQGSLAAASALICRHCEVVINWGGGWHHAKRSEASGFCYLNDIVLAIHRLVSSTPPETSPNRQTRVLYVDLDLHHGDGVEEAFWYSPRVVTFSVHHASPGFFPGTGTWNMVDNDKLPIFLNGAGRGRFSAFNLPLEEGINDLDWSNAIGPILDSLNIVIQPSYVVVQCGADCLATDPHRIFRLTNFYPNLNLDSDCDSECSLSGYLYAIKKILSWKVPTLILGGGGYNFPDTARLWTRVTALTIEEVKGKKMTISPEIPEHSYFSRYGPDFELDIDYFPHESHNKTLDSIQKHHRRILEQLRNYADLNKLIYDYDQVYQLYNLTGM
Put plainly: biochemical. Format: biochemical. The following applies: for inhibition at 10 µM: pretest n=1, read-out: smHDAC8 (% inhibition, Fluor de Lys); for inhibition at 5 µM / inhibition at 50 µM: pretest; for inhibition at 5 µM: read-out: smHDAC8 % inhibition @ 5 μM (Fluor de Lys); for inhibition at 50 µM: read-out: smHDAC8 % inhibition @ 50 μM (Fluor de Lys).

Series [1] deals with T2, hsHDAC8 (Homo sapiens, UniProt Q9BY41).
T2 construct: made in house
T2 sequence (Q9BY41 1-377): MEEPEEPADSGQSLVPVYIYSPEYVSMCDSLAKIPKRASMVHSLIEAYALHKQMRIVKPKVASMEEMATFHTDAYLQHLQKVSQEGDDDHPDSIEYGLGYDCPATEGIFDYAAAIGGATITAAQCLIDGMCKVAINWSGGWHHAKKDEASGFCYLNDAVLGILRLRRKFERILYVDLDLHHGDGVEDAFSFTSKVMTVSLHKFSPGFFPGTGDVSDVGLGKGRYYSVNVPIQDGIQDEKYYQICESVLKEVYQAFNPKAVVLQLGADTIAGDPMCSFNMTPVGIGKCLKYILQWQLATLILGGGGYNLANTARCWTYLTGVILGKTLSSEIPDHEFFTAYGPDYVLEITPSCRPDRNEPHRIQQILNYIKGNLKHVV
Put plainly: In vitro hsHDAC8 inhibition, homogeneous fluorescence assay (Fluor de Lys substrate). Format: biochemical. Conditions: n=2; mean ± S.E.M.

The next series has as its target T3, hsHDAC6 (Homo sapiens, UniProt Q9UBN7).
T3 sequence (Q9UBN7 1-1215): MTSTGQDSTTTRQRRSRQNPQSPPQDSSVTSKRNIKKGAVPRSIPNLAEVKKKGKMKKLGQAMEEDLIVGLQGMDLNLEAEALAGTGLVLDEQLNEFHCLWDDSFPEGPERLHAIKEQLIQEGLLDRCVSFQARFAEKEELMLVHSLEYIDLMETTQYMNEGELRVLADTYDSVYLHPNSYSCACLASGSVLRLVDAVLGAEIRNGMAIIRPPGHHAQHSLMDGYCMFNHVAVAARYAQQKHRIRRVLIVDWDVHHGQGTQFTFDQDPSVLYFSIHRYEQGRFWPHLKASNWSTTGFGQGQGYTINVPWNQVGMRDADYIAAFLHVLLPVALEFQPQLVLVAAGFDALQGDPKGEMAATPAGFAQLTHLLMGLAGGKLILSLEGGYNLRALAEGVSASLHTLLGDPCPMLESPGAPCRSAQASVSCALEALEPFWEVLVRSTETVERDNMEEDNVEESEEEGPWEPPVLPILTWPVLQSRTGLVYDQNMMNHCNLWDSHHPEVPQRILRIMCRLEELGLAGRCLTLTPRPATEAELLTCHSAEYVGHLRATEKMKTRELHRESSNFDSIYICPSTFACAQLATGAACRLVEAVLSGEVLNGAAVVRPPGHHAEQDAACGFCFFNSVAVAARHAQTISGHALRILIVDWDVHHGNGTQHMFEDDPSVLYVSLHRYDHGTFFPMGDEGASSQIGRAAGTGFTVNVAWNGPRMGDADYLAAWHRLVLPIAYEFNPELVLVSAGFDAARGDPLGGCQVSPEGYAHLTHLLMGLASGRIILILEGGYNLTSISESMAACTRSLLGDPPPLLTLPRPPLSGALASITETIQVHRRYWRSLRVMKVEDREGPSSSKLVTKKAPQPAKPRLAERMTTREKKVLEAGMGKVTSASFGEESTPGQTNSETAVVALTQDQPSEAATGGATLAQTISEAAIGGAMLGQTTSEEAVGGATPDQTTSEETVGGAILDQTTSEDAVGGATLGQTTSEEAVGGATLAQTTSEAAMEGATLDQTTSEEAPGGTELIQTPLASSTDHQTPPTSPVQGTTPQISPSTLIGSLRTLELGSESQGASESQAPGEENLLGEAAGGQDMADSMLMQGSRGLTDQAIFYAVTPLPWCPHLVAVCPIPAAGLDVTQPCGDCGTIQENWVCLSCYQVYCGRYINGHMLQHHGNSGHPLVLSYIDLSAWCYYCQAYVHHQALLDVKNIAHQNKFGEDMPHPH
Put plainly: In vitro hsHDAC6 inhibition (ZMAL substrate, trypsin developer). The series is classed as biochemical. Conditions: for IC50: n=2, mean ± S.E.M.

The subject of series [2] is S. mansoni larvae (schistosomula). Put plainly: Schistosome viability testing, resazurin-based fluorescence assay. The series is classed as cell-based, Schistosoma mansoni. Here is the method: Selected compounds (Table 4) were tested for their effects on the viability of S. mansoni larvae (schistosomula) using a resazurin‐based fluorescence assay that measures mitochondrial activity. Assays were carried out in triplicate on two separate batches of schistosomula and the results are expressed as the percentage of the value obtained with the solvent (DMSO). Initial testing was done at 10 μM as part of a high‐throughput screening procedure and compounds provoking at least a 25 % reduction in viability were tested at 20 μM to determine a dose‐response. […] However, the level of reduction obtained was mediocre and this compound was not considered for further testing. […] A variety of schistosome viability assays are currently used in the field [e. g. […] However, since we have compared compounds that a priori have the same biological target, it is unlikely that they will have different effects on the parasite and that a different viability assay, for example based on morphological characteristics,52 would give different results. Nevertheless, in view of the potency of the triazole‐based smHDAC8 inhibitors on the enzyme, their further development, aimed at improving their bioavailability, is justified.
Schistosome viability testing: The resazurin‐based assay to determine the effects of novel inhibitors targeting smHDAC8 on the viability of S. mansoni schistosomula was carried out exactly as previously described.27, 62 Briefly, newly transformed schistosomula (NTS) were obtained in vitro as previously described63 by mechanical transformation of S. mansoni cercaria. A suspension of NTS was prepared at a concentration of 100 per 100 μL using Medium 199 (Invitrogen) supplemented with 10 % fetal calf serum (Gibco), penicillin (50 U×mL^−1), streptomycin (50 μg×mL^−1), and rifampicin (60 μg×mL^−1). Schistosomula were kept in culture for 3 h at 37 °C and 5 % CO2 prior to use in screening. Drug stock solutions of 20 mM in DMSO were used. Mid‐dilutions were performed in 100 % DMSO and 1 μL added to 100 μL/well of M199 medium in black 96 well plates (Nunc, UK) with supplemented Medium 199 and 100 μL of the prepared NTS suspension (100 NTS/well). Live and dead schistosomula (treated with 70 % ethanol) were used as positive and negative controls. Experiments were carried out in triplicate wells in two biological replicates and the compounds were tested at final concentrations of 10 and 20 μM. After 48 h of drug exposure, 20 μL of resazurin solution (Abd Serotec) were added to each well. Finally, after 72 h of exposure, the fluorescence intensity of the highly red fluorescent resorufin product was measured using an excitation wavelength of 530 nm and an emission wavelength of 590 nm in an Infinite M200 Pro microplate reader (TECAN). Background fluorescence of the drug containing medium were determined for each drug dilution using wells containing only DMSO as control.

Series [3] deals with T4, hsHDAC1 (Homo sapiens, UniProt Q13547). Put plainly: In vitro hsHDAC1 inhibition (ZMAL substrate, trypsin developer). The series is classed as biochemical. The following applies: for inhibition at 10 µM: read-out: hsHDAC1 (% inhibition, ZMAL).
T4 sequence (Q13547 whole entry): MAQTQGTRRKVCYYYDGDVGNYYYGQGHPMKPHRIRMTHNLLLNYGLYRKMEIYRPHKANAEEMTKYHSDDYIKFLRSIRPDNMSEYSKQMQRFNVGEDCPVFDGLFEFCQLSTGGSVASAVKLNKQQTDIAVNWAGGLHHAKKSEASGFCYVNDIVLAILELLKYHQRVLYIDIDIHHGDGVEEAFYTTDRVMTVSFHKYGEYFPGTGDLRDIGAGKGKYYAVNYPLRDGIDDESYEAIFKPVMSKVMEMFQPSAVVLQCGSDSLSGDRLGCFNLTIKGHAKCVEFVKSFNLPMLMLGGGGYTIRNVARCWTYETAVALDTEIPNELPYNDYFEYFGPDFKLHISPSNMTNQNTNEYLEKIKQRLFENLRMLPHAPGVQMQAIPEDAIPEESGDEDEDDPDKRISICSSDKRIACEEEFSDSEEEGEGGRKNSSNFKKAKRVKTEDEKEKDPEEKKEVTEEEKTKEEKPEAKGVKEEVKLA
In series [4] the target is T2, hsHDAC8. Set-up: method as in PMID 19007204. The following applies: cited from earlier work.
In series [5] the target is T4, hsHDAC1. On the set-up: method as in PMID 19007204. The following applies: cited from earlier work.
In series [6] the target is T4, hsHDAC1. On the set-up: method as in PMID 24086136, PMID 26013035. The following applies: @ 10 μM; SAHA row of Table 3; cited from earlier work.
The mark [7] stands for this setting: Schistosoma mansoni, 72 h, read-out: % viability of S. mansoni schistosomula.

Several values for one entry are separate records, joined by “and”; a condition that tells them apart may be missing. Equal values may be shown once. Read-outs that look alike come from different tables or passages of the source.

In general, IC50 refers to the concentration that gives 50% inhibition. Usually inhibition stands for the drop in the measured response relative to a control, in per cent. The viability is a per cent measure of how many cells are alive, often set against a control. For `O=C(NO)c1cn(-c2ccccc2)nn1` [Compound 2 b, N ‐Hydroxy‐1‐phenyl‐1H‐1,2,3‐triazole‐4‐carboxamide], the IC50 against smHDAC8 is 4.44 ± 1.52 µM; on hsHDAC8 [1], 12.4 ± 1.08 µM; against hsHDAC6, 42.5 ± 3.64 µM. The inhibition at 10 µM at smHDAC8 was 57.9%; on hsHDAC1 [3] (@ 10 μM) it was 8.1 ± 1%. Besides, the viability at 10 µM in series [2] (setting [7]) amounted to 92.5%.

As usually defined, the melting point is the temperature, or range, at which the solid turns liquid. Compound `O=C(NO)c1cn(Cc2ccccc2)nn1` [Compound 2 c] registered a melting point of 183 °C. Besides, the inhibition at 10 µM at smHDAC8 is 39.6%. Further, on hsHDAC8 [4], the “inhibition of hsHDAC8 (in words)” value is “weakly inhibit”. Besides, the “inhibition of hsHDAC1 (in words)” value on hsHDAC1 [5] is given as “weakly inhibit”.

`O=C(NO)c1cn(Cc2ccc(C(F)(F)F)cc2)nn1` [Compound 2 e] registered a melting point of 192 °C. Also, at smHDAC8, the IC50 amounted to 5.12 ± 0.64 µM and the inhibition at 10 µM was 52.5%. It took 3.47 ± 0.53 µM to reach half-maximal inhibition on hsHDAC8 [1] (IC50). Besides, the inhibition at 10 µM against hsHDAC6 came out at 2.2 ± 0.5%. Also, the inhibition at 10 µM on hsHDAC1 [3] (@ 10 μM) is 3.3 ± 2.5%.

Turning to `O=C(NO)c1cn(CCc2ccccc2)nn1` [Compound 2 f], the melting point turned out to be 178 °C. Moreover, at smHDAC8, half-maximal inhibition (IC50) was put at 10.7 ± 1.88 µM and the inhibition at 10 µM was found to be 49.5%. Further, at hsHDAC8 [4], the “inhibition of hsHDAC8 (in words)” value is “weakly inhibit”. This compound yielded an IC50 at hsHDAC8 [1] of 5.54 ± 0.64 µM. Further, the inhibition at 10 µM at hsHDAC6 was determined as 12.6 ± 9.6%. The “inhibition of hsHDAC1 (in words)” value on hsHDAC1 [5] is on record as “weakly inhibit”. The inhibition at 10 µM at hsHDAC1 [3] (@ 10 μM) was determined as 1.7 ± 3.4%.

With `O=C(NO)c1cn(CCCc2ccccc2)nn1` [Compound 2 g], the melting point turned out to be 182 °C. At smHDAC8, half-maximal inhibition (IC50) was put at 8.81 ± 1.89 µM and the inhibition at 10 µM was determined as 50.5%. For the same compound, the “inhibition of hsHDAC8 (in words)” value at hsHDAC8 [4] is on record as “weakly inhibit”. This compound also came in with an IC50 against hsHDAC8 [1] of 5.37 ± 0.68 µM. This compound also displayed a half-maximal inhibitory concentration (IC50) against hsHDAC6 of 31.8 ± 6.18 µM. In addition, on hsHDAC1 [5], the “inhibition of hsHDAC1 (in words)” value is “weakly inhibit”. For the same compound, the inhibition at 10 µM on hsHDAC1 [3] (@ 10 μM) came to 5.4 ± 7%.

Take `O=C(NO)c1cn(-c2cc(Cl)ccc2Oc2ccc(F)cc2)nn1` [Compound 21, 1‐[5‐Chloro‐2‐(4‐fluorophenoxy)phenyl]‐N‐hydroxy‐1H‐1,2,3‐triazole‐4‐carboxamide]: the inhibition at 5 µM at smHDAC8 was 66.2%; on hsHDAC6 (@ 5 μM) it was -1.5%; at hsHDAC1 [3] (@ 5 μM) it was 11%. The results for the inhibition at 50 µM on smHDAC8, at hsHDAC6 (@ 50 μM) and at hsHDAC1 [3] (@ 50 μM) were 93.4%, 34.5% and 38.2%, respectively. Further, the half-maximal inhibitory concentration (IC50) on smHDAC8 (n=2, mean ± S.E.M., read-out: smHDAC8 IC50 (Fluor de Lys)) was 0.5 µM and 0.504 µM; against hsHDAC8 [1], 2.2 ± 0.68 µM. In addition, the viability at 10 µM in [2] (setting [7]) worked out at 82%.

Regarding `O=C(NO)c1cn(-c2cc(Cl)ccc2Oc2ccccc2)nn1` [Compound 29, 1‐(5‐Chloro‐2‐phenoxyphenyl)‐N‐hydroxy‐1H‐1,2,3‐triazole‐4‐carboxamide], on smHDAC8, the inhibition at 5 µM came to 51.4% and the inhibition at 50 µM came to 91.5%. Moreover, in series [2] (setting [7]), the viability at 10 µM turned out to be 64.2% and the viability at 20 µM was 49.9%. Besides, in [2] (at 10 and 20 μM), the “reduction in viability of schistosomula (in words)” value was “significant reduction in viability”.

With `O=C(CCCCCCC(=O)Nc1ccccc1)NO` [SAHA (1), SAHA, reference compound], the inhibition at 10 µM at smHDAC8 was found to be 72%; at hsHDAC1 [3], 97.3 ± 1.3%. Moreover, at hsHDAC1 [6], the “hsHDAC1 % inhibition (ZMAL)” value is 0.117±0.0056 97.3±1.3 % @ 10 μM.
